These results are taken from paper PMC10065276, “Enhanced therapeutic window for antimicrobial Pept-ins by investigating their structure-activity relationship” (PLOS ONE, 2023).

Residues, ends and D or L forms follow the SMILES beside them. A value given as a limit tells only on which side of the number the result lay.

The test system of this experiment is E. coli BL21. As to conditions: BL21, 17 h. Summed up:
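EUCAST broth microdilution in Mueller-Hinton medium; end-exponential culture diluted to 0.005 McF (~1.5x10^6 CFU/mL) before 1:1 mixing with two-fold peptide dilutions (0.75 to 100 μg/mL), triplicates.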

Consider `CC(C)C[C@H](NC(=O)CNC(=O)[C@H](CCCNC(=N)N)NC(=O)[C@@H](NC(=O)[C@H](C)NC(=O)[C@H](CCCNC(=N)N)NC(=O)[C@@H](NC(=O)[C@H](CC(C)C)NC(=O)[C@H](C)NC(=O)[C@H](CC(C)C)NC(=O)CNC(=O)[C@H](CC(C)C)NC(=O)CNC(=O)[C@@H](N)CCCNC(=N)N)C(C)C)C(C)C)C(=O)NCC(=O)N[C@@H](CC(C)C)C(=O)N[C@@H](C)C(=O)N[C@@H](CC(C)C)C(=O)N[C@H](C(=O)N[C@@H](C)C(=O)N[C@@H](CCCNC(=N)N)C(=O)O)C(C)C` [Peptide P2_4R_V] (H-RGLGLALVRAVRGLGLALVAR-OH), for which the “BL21 MIC” value was found to be 12.50 µg/mL. Still for that read-out and setting: the value for `CC(C)C[C@H](NC(=O)CNC(=O)[C@H](CCCNC(=N)N)NC(=O)[C@@H]1CCCN1C(=O)[C@H](CCCNC(=N)N)NC(=O)[C@H](C)NC(=O)[C@@H](NC(=O)[C@H](CC(C)C)NC(=O)[C@H](C)NC(=O)[C@H](CC(C)C)NC(=O)CNC(=O)[C@H](CC(C)C)NC(=O)CNC(=O)[C@@H](N)CCCNC(=N)N)C(C)C)C(=O)NCC(=O)N[C@@H](CC(C)C)C(=O)N[C@@H](C)C(=O)N[C@@H](CC(C)C)C(=O)N[C@H](C(=O)N[C@@H](CCCNC(=N)N)C(=O)N[C@@H](C)C(=O)O)C(C)C` [R9A, R21A] (H-RGLGLALVARPRGLGLALVRA-OH) was more than 100.00 µg/mL.

For the compound `CC(C)C[C@H](NC(=O)CNC(=O)[C@H](CCCNC(=N)N)NC(=O)[C@@H]1CCCN1C(=O)[C@H](CCCNC(=N)N)NC(=O)[C@H](CCCNC(=N)N)NC(=O)[C@@H](NC(=O)[C@H](C)NC(=O)[C@H](C)NC(=O)[C@H](CC(C)C)NC(=O)CNC(=O)[C@H](CC(C)C)NC(=O)CNC(=O)[C@@H](N)CCCNC(=N)N)C(C)C)C(=O)NCC(=O)N[C@@H](CC(C)C)C(=O)N[C@@H](C)C(=O)N[C@@H](CC(C)C)C(=O)N[C@H](C(=O)N[C@@H](CCCNC(=N)N)C(=O)N[C@@H](CCCNC(=N)N)C(=O)O)C(C)C` [Peptide P2_L7A] (H-RGLGLAAVRRPRGLGLALVRR-OH), the “BL21 MIC” value was 50.00 µg/mL.

As for `CC[C@H](C)[C@H](NC(=O)CNC(=O)[C@H](CC(C)C)NC(=O)[C@H](CCCNC(=N)N)NC(=O)[C@@H]1CCCN1C(=O)[C@H](CCCNC(=N)N)NC(=O)[C@H](CCCNC(=N)N)NC(=O)[C@H](CC(C)C)NC(=O)[C@H](C)NC(=O)[C@@H](NC(=O)[C@H](C)NC(=O)[C@H](C)NC(=O)CNC(=O)[C@H](CC(C)C)NC(=O)[C@@H](N)CCCNC(=N)N)C(C)C)C(=O)N[C@@H](C)C(=O)N[C@H](C(=O)N[C@@H](C)C(=O)N[C@@H](CC(C)C)C(=O)N[C@@H](CCCNC(=N)N)C(=O)N[C@@H](CCCNC(=N)N)C(=O)O)C(C)C` [Peptide P33-I4A] (H-RLGAAVALRRPRLGIAVALRR-OH), the “BL21 MIC” value came out at 12.50 µg/mL. On the same count and under the same terms, next, `CC[C@H](C)[C@H](NC(=O)CNC(=O)[C@H](CC(C)C)NC(=O)[C@@H](N)CCCNC(=N)N)C(=O)N[C@@H](C)C(=O)N[C@H](C(=O)N[C@@H](C)C(=O)N[C@@H](CC(C)C)C(=O)N[C@@H](C)C(=O)N[C@@H](CCCNC(=N)N)C(=O)N1CCC[C@H]1C(=O)N[C@@H](CCCNC(=N)N)C(=O)N[C@@H](CC(C)C)C(=O)NCC(=O)N[C@H](C(=O)N[C@@H](C)C(=O)N[C@H](C(=O)N[C@@H](C)C(=O)N[C@@H](CC(C)C)C(=O)N[C@@H](CCCNC(=N)N)C(=O)N[C@@H](CCCNC(=N)N)C(=O)O)C(C)C)[C@@H](C)CC)C(C)C` [Peptide P33-R9A] (H-RLGIAVALARPRLGIAVALRR-OH): 6.25 µg/mL; `CC[C@H](C)[C@H](NC(=O)[C@H](CC(C)C)NC(=O)CNC(=O)[C@H](CC(C)C)NC(=O)CNC(=O)[C@H](CCCNC(=N)N)NC(=O)[C@@H]1CCCN1C(=O)[C@H](CCCNC(=N)N)NC(=O)[C@H](CCCNC(=N)N)NC(=O)[C@@H](NC(=O)[C@H](CC(C)C)NC(=O)[C@@H](NC(=O)[C@H](CC(C)C)NC(=O)CNC(=O)[C@H](CC(C)C)NC(=O)CNC(=O)[C@@H](N)CCCNC(=N)N)[C@@H](C)CC)C(C)C)C(=O)N[C@@H](CC(C)C)C(=O)N[C@H](C(=O)N[C@@H](CCCNC(=N)N)C(=O)N[C@@H](CCCNC(=N)N)C(=O)O)C(C)C` [A5I (P2)] (H-RGLGLILVRRPRGLGLILVRR-OH): 6.25 µg/mL. For the compound `CC(C)C[C@H](NC(=O)CNC(=O)[C@H](CCCNC(=N)N)NC(=O)[C@@H]1CSSC[C@H](NC(=O)[C@@H](NC(=O)[C@H](CC(C)C)NC(=O)[C@H](C)NC(=O)[C@H](CC(C)C)NC(=O)CNC(=O)[C@H](CC(C)C)NC(=O)CNC(=O)[C@@H](N)CCCNC(=N)N)C(C)C)C(=O)N[C@@H](CCCNC(=N)N)C(=O)N[C@@H](CCCNC(=N)N)C(=O)N[C@H](Cc2ccccc2)C(=O)N2CCC[C@H]2C(=O)N1)C(=O)NCC(=O)N[C@@H](CC(C)C)C(=O)N[C@@H](C)C(=O)N[C@@H](CC(C)C)C(=O)N[C@H](C(=O)N[C@@H](CCCNC(=N)N)C(=O)N[C@@H](CCCNC(=N)N)C(=O)O)C(C)C` [Peptide P2_H12_fP], the “BL21 MIC, SS bond” value was 3.13 µg/mL and the “BL21 MIC, no SS bond” value stood at 6.25 µg/mL.

For the compound `CSCC[C@H](NC(=O)[C@H](C)NC(=O)[C@H](CCCNC(=N)N)NC(=O)[C@@H](NC(=O)[C@H](CC(C)C)NC(=O)[C@H](C)NC(=O)[C@H](CC(C)C)NC(=O)CNC(=O)[C@H](CC(C)C)NC(=O)CNC(=O)[C@@H](N)CCCNC(=N)N)C(C)C)C(=O)N[C@@H](CCCNC(=N)N)C(=O)NCC(=O)N[C@@H](CC(C)C)C(=O)NCC(=O)N[C@@H](CC(C)C)C(=O)N[C@@H](C)C(=O)N[C@@H](CC(C)C)C(=O)N[C@H](C(=O)N[C@@H](C)C(=O)N[C@@H](CCCNC(=N)N)C(=O)O)C(C)C` [Peptide P2_4R_M] (H-RGLGLALVRAMRGLGLALVAR-OH), the “BL21 MIC” value is 12.50 µg/mL. Turning to `CC(C)C[C@H](NC(=O)CNC(=O)[C@H](CCCNC(=N)N)NC(=O)[C@@H]1CSSC[C@H](NC(=O)[C@@H](NC(=O)[C@H](CC(C)C)NC(=O)[C@H](C)NC(=O)[C@H](CC(C)C)NC(=O)CNC(=O)[C@H](CC(C)C)NC(=O)CNC(=O)[C@@H](N)CCCNC(=N)N)C(C)C)C(=O)N[C@@H](CCCNC(=N)N)C(=O)N[C@@H](CCCNC(=N)N)C(=O)N2CCC[C@H]2C(=O)N1)C(=O)NCC(=O)N[C@@H](CC(C)C)C(=O)N[C@@H](C)C(=O)N[C@@H](CC(C)C)C(=O)N[C@H](C(=O)N[C@@H](CCCNC(=N)N)C(=O)N[C@@H](CCCNC(=N)N)C(=O)O)C(C)C` [Peptide P2_var9], the “BL21 MIC, SS bond” value is 6.25 µg/mL and the “BL21 MIC, no SS bond” value was found to be 6.25 µg/mL. Consider `CC(C)C[C@H](NC(=O)CNC(=O)[C@H](CCCNC(=N)N)NC(=O)[C@@H]1CCCN1C(=O)[C@H](CCCNC(=N)N)NC(=O)[C@H](CCCNC(=N)N)NC(=O)[C@@H](NC(=O)[C@H](CC(C)C)NC(=O)[C@H](C)NC(=O)[C@H](CC(C)C)NC(=O)CNC(=O)[C@H](CC(C)C)NC(=O)CNC(=O)[C@@H](N)CCCNC(=N)N)C(C)C)C(=O)NCC(=O)N[C@@H](CC(C)C)C(=O)N[C@@H](CC(C)C)C(=O)N[C@@H](CC(C)C)C(=O)N[C@H](C(=O)N[C@@H](CCCNC(=N)N)C(=O)N[C@@H](CCCNC(=N)N)C(=O)O)C(C)C` [Peptide P2_A5L] (H-RGLGLALVRRPRGLGLLLVRR-OH), for which the “BL21 MIC” value was 6.25 µg/mL.
